“Also recorded” adds a separate entry of the source. Where no end group is shown, it is not given here.
Assays:
[1] = target: T1, truncated rat PTH-1 receptor (rΔNt) (Rattus norvegicus, UniProt P25961, E586G); test: cAMP response in COS-7 cells transiently transfected with truncated rat PTH-1 receptor (rΔNt); format: cell-based; conditions: for cAMP response of cells expressing rΔNt (in words): secretin(1–27) 1 mM
T1 construct: contains an open reading frame encoding a protein of about 435 amino acid residues; expressed in transfected cells; host or cells: COS-7, transient (DEAE-dextran), pCDNA-1 based plasmid
T1 sequence (P25961 with tags, fused parts or gaps E586G): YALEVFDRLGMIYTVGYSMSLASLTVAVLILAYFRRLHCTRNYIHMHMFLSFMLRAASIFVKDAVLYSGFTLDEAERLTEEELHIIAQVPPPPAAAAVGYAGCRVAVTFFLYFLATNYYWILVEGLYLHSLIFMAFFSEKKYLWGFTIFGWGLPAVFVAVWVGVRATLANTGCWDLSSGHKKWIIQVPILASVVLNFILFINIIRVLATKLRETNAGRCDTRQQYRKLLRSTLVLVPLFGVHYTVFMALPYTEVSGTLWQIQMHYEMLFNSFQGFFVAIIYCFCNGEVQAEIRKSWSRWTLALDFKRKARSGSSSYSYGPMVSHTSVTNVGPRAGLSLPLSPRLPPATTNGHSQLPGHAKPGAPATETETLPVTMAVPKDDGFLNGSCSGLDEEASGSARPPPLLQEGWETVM
Excerpt: (§1) FIG. 4. PTH Responses of Intact and Truncated PTH-1 Receptors in COS-7 Cells. Shown at the top are schematics of the intact (A) and truncated (B) rat PTH-1 receptors used for transient transfection of COS-7 cells, and subsequent cAMP response assays. The conserved extracellular cysteine residues are depicted as open circles and numbered according to sequence position, and the nine amino acids of the epitope tag (HA) in rWT-HA are shaded. The tics at residue 26 and 181 indicate the endpoints of the deletion in rΔNt. Based on the predicted signal peptide cleavage site at Ala-22, residues 23–25 in rΔNt are joined to residue 182. The cAMP responses of COS-7 cells expressing the intact receptor (C) and rΔNt (D) to rPTH(1–34) (J) or rPTH(1–14) (C) are also shown. The graphs show combined data (mean±s.e.m.) from five separate experiments, each performed in duplicate. […]
(§2) FIG. 6. Specificity of the Truncated Ligand and PTH Receptor. COS-7 cells transiently transfected with either rWT-HA (A), rΔNt (B), or the intact rat secretin receptor (C), were treated with the indicated peptides for 60 min at 22° C., and the resulting intracellular cAMP levels were quantified by RIA. Concentration of peptides present during the incubations were: rPTH(1–34), 0.1 mM; rPTH(1–14) 100 mM; secretin(1–27). […] Shown are data (mean±s.e.m.) from one experiment performed in duplicate, and this was repeated twice more with equivalent results.
(§3) For studies with the intact and truncated rat PTH-1 receptors, transient transfections of COS-7 cells were performed using DEAE-dextran as described previously (Bergwitz, C., et al., J. Biol. Chem. 272:28861–28868)). The construction and initial characterization of the pCDNA-1 based plasmids encodin either the intact or truncated rat PTH-1 receptor has been described previously (Lee, C., et al., Endocrinology 135(4):1488–1495)). […] The truncated rat PTH-1 receptor (rΔNt) is deleted for exons E1 through exon G (residues 26 to 181). Assuming that signal peptidase cleavage occurs between Ala-22 and Tyr-23 (Nielsen, H., et al., Protein Engineering 10:1–6 (1997)), rΔNt is predicted to have for its N-terminus residues Dautzenberg, F., et al., Proc. Natl. Acad. Sci. 95:4941–4946 (1998); Holtmann, M., et al., J. Biol. Chem. 270:14394–14398 (1995); DeAlmeida, V. and Mayo, K., Mol. Endo. 12:750–765 (1998)) joined to Glu-182 (FIG. 3B). COS-7 cells were transfected in 24-well plates when the cells were 85 to 95% of confluency, using 200 ng of plasmid DNA that was purified by cesium chloride/ethidium bromide gradient centrifugation for each well. Assays were conducted 72 to 96 hours after transfection. Under these conditions about ˜20% of the COS-7 cells become transfected and express about 5×10^6 surface PTH receptors per cell (Bergwitz, C., et al., J. Biol. Chem. 272:28861–28868)).
(§4) Intracellular cyclic AMP: Transfected COS-7 or HKRK-B7 cells were rinsed with 500 ml of binding buffer, (50 mM Tris-HCl, pH 7.7, 100 mM NaCl, 5 mM KCl, 2 mM CaC12, 5% heat-inactivated horse serum, 0.5% heat-inactivated fetal bovine serum) and 200 ml of IBMX buffer (DMEM containing 2 mM IBMX, 1 mg/ml bovine serum albumin, 35 mM Hepes-NaOH, pH 7.4) and […] of binding buffer or binding buffer containing various amounts of peptide were added. The plates were incubated for 60 minutes at room temperature. The buffer was then withdrawn and the cells were frozen on dry ice, treated with 0.5 ml of 50 mM HCl, and refrozen. After the thawing, the lysate was diluted 30-fold in dH20 and an aliquot was analyzed for cAMP content by determined radioimmunoassay using unlabeled cAMP as a standard.
(§5) Experiments utilized COS-7 cells transfected with either the intact rat PTH-1 receptor (rWT-HA, FIG. 4A) or a truncated rat PTH-1 receptor with most of the amino-terminal extracellular domain deleted (rΔNt, FIG. 4B).

[2] = test system: truncated rat PTH-1 receptor (rΔNt); test: as above; format: cell-based; conditions: COS-7 cells, cAMP
Excerpt: as §1, §2, §3, §4, §5

| Compound | greater potency with rΔNt in comparison to the potency of PTH(1–14) ([1]; COS-7 cells, cAMP) [fold] | cAMP response of cells expressing rΔNt (in words) [1] | decrease in potency with rΔNt as compared to potency with rWT-HA [2] [fold] | potency relative to PTH(1–34) with rΔNt ([1]; COS-7 cells transfected with rΔNt) | potency/activity with rΔNt compared with rWT-HA (in words) [2] |
| --- | --- | --- | --- | --- | --- |
| CCCC[C@H](NC(=O)[C@H](CCCNC(=N)N)NC(=O)[C@H](CCC(=O)O)NC(=O)[C@@H](NC(=O)[C@H](CO)NC(=O)[C@H](C)NC(=O)[C@H](CC(C)C)NC(=O)[C@H](Cc1c[nH]cn1)NC(=O)[C@H](CCCCN)NC(=O)CNC(=O)[C@H](CC(C)C)NC(=O)[C@H](CC(N)=O)NC(=O)[C@H](Cc1c[nH]cn1)NC(=O)[C@H](CCCC)NC(=O)[C@H](CC(C)C)NC(=O)[C@H](CCC(N)=O)NC(=O)[C@@H](NC(=O)[C@H](CCC(=O)O)NC(=O)[C@H](CO)NC(=O)[C@@H](NC(=O)[C@H](C)N)C(C)C)[C@@H](C)CC)C(C)C)C(=O)N[C@@H](CCC(N)=O)C(=O)N[C@@H](Cc1c[nH]c2ccccc12)C(=O)N[C@@H](CC(C)C)C(=O)N[C@@H](CCCNC(=N)N)C(=O)N[C@@H](CCCCN)C(=O)N[C@@H](CCCCN)C(=O)N[C@@H](CC(C)C)C(=O)N[C@@H](CCC(N)=O)C(=O)N[C@@H](CC(=O)O)C(=O)N[C@H](C(=O)N[C@@H](Cc1c[nH]cn1)C(=O)N[C@@H](CC(N)=O)C(=O)N[C@@H](Cc1ccc(O)cc1)C(N)=O)C(C)C [PTH(1–34), [Nle^8,21,Tyr^34]rPTH-(1–34)NH2] | 100 | responded | 100 |  |  |
| PTH(1–14): Amino-terminal peptide fragment based on the rat PTH sequence, residues 1–14, C-terminally amidated (AVSEIQLMHNLGKH-NH2) |  | responded |  | only two orders of magnitude weaker | equipotent with the two receptors; also recorded: equivalent activity; also recorded: not affected |

Source: patent US7169567B1, “Screening assay utilizing the PTH receptor” (The General Hospital Corporation, priority 1998, dated 2007)
